Laboratory results from patent publication EP3403652A1, “PREVENTION AND TREATMENT OF FIBROBLAST GROWTH FACTOR 23 (FGF23)-ASSOCIATED DISORDERS INCLUDING CHRONIC KIDNEY DISEASE (CKD)” (Veterinärmedizinische Universität Wien, priority 2017, dated 2018).

Tests used:
[1] = molecular target: WNK-regulated kinase SPAK (Ste20-like proline/alanine-rich kinase) (Homo sapiens, UniProt Q9UEW8); details: literature (Kikuchi et al. 2014); cited from earlier work
renal distal tubules [2] = experiment: Intracellular Na+ imaging by 2-photon microscopy in SBFI-loaded live kidney slices ex vivo; assay type: cell-based, mice; details: Klotho/VDR kidney slices; co-treatment with 200 ng/ml rFGF23, 2 h; closantel 30 ng/mL; BF 15 µM; PD173074 10 nM (iFGFR1) or 25 nM (FGFR1/3); iFGFR pan 120 nM
Protocol: (§1) The preparation of kidney slices for ex vivo experiments was performed as described in Andrukhova O et al. (EMBO J., 2014. 33, 229-246). Longitudinal 200-µm-thick live slices from freshly isolated kidneys of 3-month-old male WT and Klotho/VDR mice were prepared using a Leica VT1000 Vibratome (Leica Microsystems), and were used for ex vivo treatment with various substances as described below.
(§2) Longitudinal 200-µm-thick live slices of freshly isolated kidneys were prepared using a Leica VT1000 Vibratome (Leica Microsystems). For Na^+ imaging, the kidney slices of WT and Klotho/VDR mice were incubated for 60 min at 37°C with 2 µM of the sodium-sensitive dye SBFI (Molecular Probes), diluted in DMSO (Merck Millipore International) and 20% Pluronic (Merck Millipore International). For Ca^2+ imaging, the kidney slices were incubated for 30 min at 37°C with 2 µM of the calcium-sensitive dye Fluo-4 (Molecular Probes), diluted in DMSO and 20% Pluronic. Thereafter, the slices were washed two times for 20 min each in 0.1M PBS, and were subsequently incubated in vitro with vehicle (PBS), rFGF23 R176/179Q [(100 or 200 ng/ml) kindly provided by Amgen Inc., Thousand Oaks, CA, USA], PD173074 (Sigma-Aldrich) (10 nM for inhibiting FGFR1 and 25 nM for inhibiting FGFR1 and 3), pan FGFR inhibitor [(120 nM) FIIN1 hydrochloride, Tocris Bioscience, Bristol, UK)], WNK signalling inhibitor Closantel (30 ng/mL, generous gift of Dario R. Alessi) alone or combined at 37°C, 5% CO2 / 95% air humidified atmosphere for 2 h. […] For visualization of intracellular Na^+ and Ca^2+ content, SBFI or Fluo-4 were excited by a Ti:sapphire laser (Chameleon, Coherent Inc.) at 820 nm. Images (512 × 512 pixels) were acquired every 30 sec at a depth of 60 - 80 µm. Fluorescence images were analyzed using Image J software. The whole epithelial layer of the distal tubules was selected by manually drawing the region of interest (ROI) to quantify intracellular Na^+ and Ca^2+ levels. Fluorescence intensity was quantified in 4-9 ROIs per image, and the ratio between the fluorescence intensity and the ROI area was calculated for each tubule. This ratio was used for all subsequent calculations.
(§3) To gain more insight into the functional role of the rFGF23-induced increase in distal renal tubular ion channel expression and the FGF receptors involved, we performed intracellular Ca^2+ and Na^+ imaging by 2-photon microscopy in Fluo-4- or SFBI-loaded and subsequently rFGF23-treated (100 or 200 ng/ml for 2 h), 200-µm-thick renal slices prepared from WT and Klotho/VDR mice.
(§4) In this example it was assessed whether the Klotho-independent FGF23 signalling pathway is mediated through FGFR3 and/or 4, given that FGFR2 expression was low in distal renal tubules (Figure 12A). To dissect between the latter receptors, Klotho/VDR kidney slices were treated with rFGF23 alone or in combination with an FGFR1/FGFR3 inhibitor and the WNK signalling inhibitor closantel.

[3] = in vivo, cited from earlier work
5/6 Nx (CKD) WT mice = experiment: 5/6 nephrectomy CKD model, closantel orally via the diet over 8 weeks; assay type: in vivo
Protocol: The 5/6 nephrectomy (5/6 Nx) was performed in two stages (Leelahavanichkul A et al., Kidney Int. 78, 2010. 1136-1153) under isoflurane anesthesia (Fig. 1A). Pain was managed by s.c. injections of buprenorphine, metamizol and meloxicam. Additionally, the animals were treated for 3 days postsurgery with the analgesic piritramid via the drinking water, starting 6 h postsurgery. At the first stage (wk -1), the left kidney was decapsulated to avoid ureter and adrenal damage, and the upper and lower poles were partially resected via a left flank incision. Bleeding was controlled by microfibrillar collagen hemostasis (Avitene, Davol, Cranston, RI). The upper and lower poles were weighed. One week later, the entire right kidney was removed via a right flank incision and weighed. Animals with insufficient kidney resection as determined by a ratio of < 0.55 for the removed left kidney weight to the removed right kidney weight were euthanized. In the Sham surgery control mice, a left flank incision was performed at step 1, both poles of kidney were identified, then the flank incision was closed; a subsequent right flank incision was performed at step 2; the right renal artery was identified, then the flank incision was closed. After each flank incision, muscles and skin were repositioned and sewed. Mortality was tracked throughout the study. Necropsy was not performed on animals that died early.
For this experiment, WT Sham and 5/6-Nx mice were fed powdered rescue diet throughout the study. Closantel (Abcam) was dissolved in 100% ethanol (vehicle), and mixed into the moistened diet. To achieve a loading dose of 5 mg/kg body weight, the drug was mixed into the food at an initial concentration of 30 mg/kg diet. […] All mice were killed 8 weeks postsurgery.
Central arterial pressure and cardiac hemodynamic parameters were assessed using a SPR-671NR pressure catheter (1.4 French; Millar Instruments). Mice were anesthetized with 1.5% isoflurane in oxygen. The catheter was inserted into the ascending aorta for measurement of central arterial pressure. Parameters of LV function (i.e., maximum rate of the pressure rise, contractility index, end-diastolic pressure, and isovolumetric relaxation time) were measured by placing the catheter into the left ventricle. All pressure recordings were performed at the same anesthesia level. Hemodynamic measurements were recorded over 5 min, and traces were analyzed using LabChartPro software and a blood pressure (BP) module. After pressure measurements, all animals were euthanized.
The blood volume was determined from plasma volume and hematocrit as described in Lee H B & Blaufox M D (J. Nucl. Med., 1985. 26, 72-76). Plasma volume was determined by Evans blue dye dilution (Barron W M et al., J. Clin. Invest, 1984. 73, 923-932). Briefly, 20 µl of a 0.4% (wt/vol) solution of Evans blue (Sigma) in sterile physiological saline was injected into a tail vein. Blood samples (10 µl) were collected at 10 min and 30 min after injection to measure disappearance kinetics. Tubes were centrifuged and the hematocrit was recorded. Evans blue concentration in the plasma was measured in duplicate as optical density using the 2-wavelength method.
Total kidney homogenates, kidney cortex homogenates or total cell membrane preparations were solubilized in Laemmli sample buffer, fractionated on SDS- PAGE (30 µg/well) and transferred to a nitrocellulose membrane (Thermo Scientific). […] After washing, membranes were incubated with horseradish peroxidase-conjugated secondary antibodies (Amersham Life Sciences). Specific signal was visualized by ECL kit (Amersham Life Sciences). The protein bands were quantified by Image Quant 5.0 software (Molecular Dynamics). Loading of the samples was normalized to Ponceau S stain. The expression levels were normalized to β-actin expression. […]

renal distal tubules [4] = experiment: Intracellular Ca2+ imaging by 2-photon microscopy in Fluo-4-loaded live kidney slices ex vivo; assay type: cell-based, mice; details: Klotho/VDR kidney slices; co-treatment with 200 ng/ml rFGF23, 2 h; ruthenium red 10 µM; closantel 30 ng/mL; PD173074 10 nM (iFGFR1) or 25 nM (FGFR1/3); iFGFR pan 120 nM
Protocol: as §1, §2, §3, §4

[5] = Western blotting, renal total homogenates, CKD mice, 8 weeks postsurgery
[6] = oral via diet once a week, 8 weeks postsurgery

In the case of Cc1cc(C(C#N)c2ccc(Cl)cc2)c(Cl)cc1NC(=O)c1cc(I)cc(I)c1O (centres unmarked) [closantel, N-[5-chloro-4-[(4-chlorophenyl)-cyanomethyl]-2-methylphenyl]-2-hydroxy-3,5-diiodobenzamide], the “inhibition of the WNK-regulated kinase SPAK” value [1] is listed as “potent inhibitors”, the “rFGF23-induced increase in intracellular Na^+ fluorescence (distal tubular Na^+ uptake)” value (renal distal tubules [2]) is listed as “abrogated” and the bioavailability ([3]; po) is listed as about 50%. The plasma half-life [3] was 14 days, the “urinary excretion of Na^+” value (5/6 Nx (CKD) WT mice; CKD mice, 8 weeks postsurgery) was “increased” and the “disease progression in CKD mice” value (5/6 Nx (CKD) WT mice; Figure 13 legend, oral via diet once a week over 8 weeks) was “largely protects”. For the same compound, the “renal pNCC expression” value (5/6 Nx (CKD) WT mice; [5]) was “downregulation”, the “renal pNKCC expression” value (5/6 Nx (CKD) WT mice; [5]) was “downregulation” and the “renal pWNK1 expression” value (5/6 Nx (CKD) WT mice; [5]) was “downregulation”. For the same compound, the “CKD-induced increase in HW/BW ratio” value (5/6 Nx (CKD) WT mice; [6]) was “largely prevented”, the “CKD-induced increase in blood pressure” value (5/6 Nx (CKD) WT mice; [6]) was “largely prevented” and the “CKD-induced increase in blood volume” value (5/6 Nx (CKD) WT mice; [6]) was “largely prevented”. The “CKD-driven decline in GFR” value (5/6 Nx (CKD) WT mice; oral via diet once a week, loading dose 5 mg/kg body weight, 8 weeks postsurgery) was “largely prevented” and the “rFGF23-induced increase in intracellular Ca^2+ fluorescence (distal tubular Ca^2+ uptake)” value (renal distal tubules [4]) was “abrogated”.
